Measurements: patent US8754071B2 (priority 2011, dated 2014)

These compounds were tested against T1, c-kit (Homo sapiens, UniProt P10721) (assay: Mo7e cell proliferation assay (SCF dependent proliferation)). Conditions: Table 1; human Mo7e cells stimulated with SCF, 48 hours, CellTiter Glo; 1% FBS; read-out: c-kit (Mo7e).
T1 construct: human Mo7e cells which endogenously express c-kit; endogenous in cells; host or cells: human Mo7e cells (promegakaryocytic leukemia line), stimulated with human recombinant SCF
T1 sequence (P10721 26-976): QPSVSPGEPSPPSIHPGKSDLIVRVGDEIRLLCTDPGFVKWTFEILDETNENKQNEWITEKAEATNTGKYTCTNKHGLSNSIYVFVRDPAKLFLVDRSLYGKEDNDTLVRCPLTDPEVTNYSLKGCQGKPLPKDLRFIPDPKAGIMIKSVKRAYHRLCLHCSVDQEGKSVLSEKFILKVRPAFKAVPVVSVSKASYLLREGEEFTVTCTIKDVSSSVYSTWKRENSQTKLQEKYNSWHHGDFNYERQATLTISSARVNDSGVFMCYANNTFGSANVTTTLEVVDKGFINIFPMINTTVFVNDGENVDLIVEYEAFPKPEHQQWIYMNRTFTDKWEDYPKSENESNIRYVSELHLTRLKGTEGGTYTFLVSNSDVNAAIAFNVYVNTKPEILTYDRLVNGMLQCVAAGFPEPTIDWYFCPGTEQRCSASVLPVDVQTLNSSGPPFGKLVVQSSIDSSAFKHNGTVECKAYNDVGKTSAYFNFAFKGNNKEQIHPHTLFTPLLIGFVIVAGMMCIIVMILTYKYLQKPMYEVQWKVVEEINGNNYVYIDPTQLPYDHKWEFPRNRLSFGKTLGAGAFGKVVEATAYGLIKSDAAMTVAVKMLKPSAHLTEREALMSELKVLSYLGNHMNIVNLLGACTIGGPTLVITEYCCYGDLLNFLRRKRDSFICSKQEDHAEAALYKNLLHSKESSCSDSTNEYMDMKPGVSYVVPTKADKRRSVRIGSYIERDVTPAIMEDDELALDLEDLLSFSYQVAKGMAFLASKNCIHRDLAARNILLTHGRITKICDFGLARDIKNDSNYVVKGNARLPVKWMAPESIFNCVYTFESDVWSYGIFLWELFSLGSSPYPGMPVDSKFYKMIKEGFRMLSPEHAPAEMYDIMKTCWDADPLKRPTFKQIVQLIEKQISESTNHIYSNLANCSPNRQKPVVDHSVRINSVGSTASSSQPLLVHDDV
Assay type: cell-based
Method: Mo7e Cell Proliferation Assay The compounds of Table 1 and Table 2 were tested for inhibition of SCF dependent proliferation using human Mo7e cells which endogenously express c-kit in a 384 well format. […] After 48 hours of incubation at 37° C., cell viability was measured by adding 25 uL of CellTiter Glo (Promega) to the cells and the luminescence was measured by a […] camera (Molecular Devices). […] The IC50 value is given as that concentration of the test compound in question that provoke a response halfway between the baseline and maximum responses.

IC50 | SMILES
0.997 µM | CC(C)(C)OC(=O)N1CC(c2nc(-c3ccc(F)c(NC(=O)c4cnc5ccccn45)c3)no2)C1 [F27, tert-butyl 3-(3-(4-fluoro-3-(imidazo[1,2-a]pyridine-3-carboxamido)phenyl)-1,2,4-oxadiazol-5-yl)azetidine-1-carboxylate]
0.12 µM | CCS(=O)(=O)N1CC(c2nc(-c3ccc(F)c(NC(=O)c4cnc5ccccn45)c3)no2)C1 [F28, N-(5-(5-(1-(ethylsulfonyl)azetidin-3-yl)-1,2,4-oxadiazol-3-yl)-2-fluorophenyl)imidazo[1,2-a]pyridine-3-carboxamide]
0.016 µM | Cc1ccc(-c2noc(CN3CCC(F)(F)C3)n2)cc1NC(=O)c1cnc2ccccn12 [F29]
0.02 µM | Cc1ccc(-c2noc(CN3CCC(F)(F)CC3)n2)cc1NC(=O)c1cnc2ccccn12 [F30]
0.054 µM | CCCCS(=O)(=O)N1CC(c2nc(-c3ccc(C)c(NC(=O)c4cnc5ccccn45)c3)no2)C1 [F31]
0.055 µM | Cc1ccc(-c2noc([C@@H]3CC(F)(F)CN3S(C)(=O)=O)n2)cc1NC(=O)c1cnc2ccccn12 [F32]
0.084 µM | COC(=O)N1CCC(c2nc(-c3ccc(C)c(NC(=O)c4cnc5ccccn45)c3)no2)CC1 [F33]
0.095 µM | Cc1ccc(-c2noc(C3CCN(S(C)(=O)=O)CC3)n2)cc1NC(=O)c1cnc2ccccn12 [F34]
0.066 µM | Cc1ccc(-c2noc(C3CN(S(C)(=O)=O)CCO3)n2)cc1NC(=O)c1cnc2ccccn12 (centres unmarked) [F35]
0.093 µM | Cc1ccc(-c2noc([C@@H]3CCCN3S(C)(=O)=O)n2)cc1NC(=O)c1cnc2ccccn12 [F36]
0.06 µM | Cc1ccc(-c2noc([C@H]3CN(S(C)(=O)=O)CCO3)n2)cc1NC(=O)c1cnc2ccccn12 [F37]
0.09 µM | Cc1ccc(-c2noc(C[C@@H]3CCN(S(C)(=O)=O)C3)n2)cc1NC(=O)c1cnc2ccccn12 [F38]
0.049 µM | Cc1ccc(-c2noc([C@@H]3CCCN(S(C)(=O)=O)C3)n2)cc1NC(=O)c1cnc2ccccn12 [F39]
0.094 µM | COC(=O)N1CCC[C@H]1Cc1nc(-c2ccc(C)c(NC(=O)c3cnc4ccccn34)c2)no1 [F40]
0.092 µM | Cc1ccc(-c2noc(C[C@@H]3CCCN3S(C)(=O)=O)n2)cc1NC(=O)c1cnc2ccccn12 [F41]
0.013 µM | Cc1ccc(-c2noc(CN3CC(F)(F)C(F)(F)C3)n2)cc1NC(=O)c1cnc2ccccn12 [F42]
0.024 µM | Cc1ccc(-c2noc(C3CN(S(=O)(=O)C(F)F)C3)n2)cc1NC(=O)c1cnc2ccccn12 [F43]
0.017 µM | Cc1ccc(-c2noc(CC3CCCCO3)n2)cc1NC(=O)c1cnc2ccccn12 (centres unmarked) [F44]
0.09 µM | O=C(Nc1cc(-c2noc(CN3CCC(F)(F)C3)n2)ccc1F)c1cnc2ccccn12 [F45]
0.073 µM | O=C(Nc1cc(-c2noc(CN3CCC(F)(F)CC3)n2)ccc1F)c1cnc2ccccn12 [F46]
0.047 µM | Cc1ccc(-c2noc([C@@H]3CCN3S(=O)(=O)C(C)C)n2)cc1NC(=O)c1cnc2ccccn12 [F47]
0.08 µM | COC(=O)N1CC(c2nc(-c3ccc(C)c(NC(=O)c4cnn5ccccc45)c3)no2)C1 [F48]
0.04 µM | Cc1ccc(-c2noc(CC3CCCOC3)n2)cc1NC(=O)c1cnc2ccccn12 (centres unmarked) [F49]
0.077 µM | Cc1ccc(-c2noc([C@H](C)N3CC(F)(F)C3)n2)cc1NC(=O)c1cnc2ccccn12 [F50]
0.043 µM | Cc1ccc(-c2noc([C@H](C)N3CCC(F)(F)C3)n2)cc1NC(=O)c1cnc2ccccn12 [F51]

IC50 | SMILES
0.218 µM | COC(=O)N1CC(c2nc(-c3ccc(C)c(NC(=O)c4cnc5ccc(C(F)(F)F)cn45)c3)no2)C1 [F52, methyl 3-(3-(4-methyl-3-(6-(trifluoromethyl)imidazo[1,2-a]pyridine-3-carboxamido)phenyl)-1,2,4-oxadiazol-5-yl)azetidine-1-carboxylate]
0.093 µM | CCOC(=O)N1CC(c2nc(-c3ccc(C)c(NC(=O)c4cnc5ccccn45)c3)no2)C1 [F53]
0.037 µM | COC(=O)N1CC(c2nc(-c3ccc(C)c(NC(=O)c4cnc5cc(F)ccn45)c3)no2)C1 [F54]
0.054 µM | COC(=O)N1CC(c2nc(-c3ccc(C)c(NC(=O)c4cnc5ccc(F)cn45)c3)no2)C1 [F55]
0.006 µM | COC(=O)N1CC(c2nc(-c3ccc(C)c(NC(=O)c4cnc5cc(-c6ccn(C)n6)ccn45)c3)no2)C1 [F56, methyl 3-(3-(4-methyl-3-(7-(1-methyl-1H-pyrazol-3-yl)imidazo[1,2-a]pyridine-3-carboxamido)phenyl)-1,2,4-oxadiazol-5-yl)azetidine-1-carboxylate]
0.13 µM | COC(=O)N1CC(c2nc(-c3ccc(C)c(NC(=O)c4cnc5cc(C(F)(F)F)ccn45)c3)no2)C1 [F57, methyl 3-(3-(4-methyl-3-(7-(trifluoromethyl)imidazo[1,2-a]pyridine-3-carboxamido)phenyl)-1,2,4-oxadiazol-5-yl)azetidine-1-carboxylate]
0.089 µM | Cc1ccc(-c2noc(C3(C)CN(S(C)(=O)=O)C3)n2)cc1NC(=O)c1cnc2ccccn12 [F58]
0.033 µM | COC(=O)N1CC(c2nc(-c3ccc(C)c(NC(=O)c4cnc5ccc(CCCC#N)cn45)c3)no2)C1 [F59, methyl 3-(3-(3-(6-(3-cyanopropyl)imidazo[1,2-a]pyridine-3-carboxamido)-4-methylphenyl)-1,2,4-oxadiazol-5-yl)azetidine-1-carboxylate]
0.028 µM | COC(=O)N1CC(c2nc(-c3ccc(C)c(NC(=O)c4cnc5ccc(OC)cn45)c3)no2)C1 [F60]
0.026 µM | COC(=O)N1CC(c2nc(-c3ccc(C)c(NC(=O)c4cnc5cc(C)ccn45)c3)no2)C1 [F61, methyl 3-(3-(4-methyl-3-(7-methylimidazo[1,2-a]pyridine-3-carboxamido)phenyl)-1,2,4-oxadiazol-5-yl)azetidine-1-carboxylate]
0.036 µM | COC(=O)N1CC(c2nc(-c3ccc(C)c(NC(=O)c4cnc5ccc(C)cn45)c3)no2)C1 [F62, methyl 3-(3-(4-methyl-3-(6-methylimidazo[1,2-a]pyridine-3-carboxamido)phenyl)-1,2,4-oxadiazol-5-yl)azetidine-1-carboxylate]
0.013 µM | COC(=O)N1CC(c2nc(-c3ccc(C)c(NC(=O)c4cnc5cc(-c6cnn(CCN7CCOCC7)c6)ccn45)c3)no2)C1 [F63]
0.064 µM | COC(=O)N1CC(c2nc(-c3ccc(C)c(NC(=O)c4cnc5ccc(CCC#N)cn45)c3)no2)C1 [F64, methyl 3-(3-(3-(6-(2-cyanoethyl)imidazo[1,2-a]pyridine-3-carboxamido)-4-methylphenyl)-1,2,4-oxadiazol-5-yl)azetidine-1-carboxylate]
0.033 µM | COC(=O)N1CC(c2nc(-c3ccc(C)c(NC(=O)c4cnc5ccc(CCC(C)=O)cn45)c3)no2)C1 [F65, methyl 3-(3-(4-methyl-3-(6-(3-oxobutyl)imidazo[1,2-a]pyridine-3-carboxamido)phenyl)-1,2,4-oxadiazol-5-yl)azetidine-1-carboxylate]
0.05 µM | COC(=O)N1CC(c2nc(-c3ccc(C)c(NC(=O)c4cnc5ccc(CCN6CCOCC6)cn45)c3)no2)C1 [F66, methyl 3-(3-(4-methyl-3-(6-(2-morpholinoethyl)imidazo[1,2-a]pyridine-3-carboxamido)phenyl)-1,2,4-oxadiazol-5-yl)azetidine-1-carboxylate]
0.029 µM | COC(=O)N1CC(c2nc(-c3ccc(C)c(NC(=O)c4cnc5ccc(CCC(C)(C)O)cn45)c3)no2)C1 [F67, methyl 3-(3-(3-(6-(3-hydroxy-3-methylbutyl)imidazo[1,2-a]pyridine-3-carboxamido)-4-methylphenyl)-1,2,4-oxadiazol-5-yl)azetidine-1-carboxylate]
0.013 µM | COC(=O)N1CC(c2nc(-c3ccc(C)c(NC(=O)c4cnc5cc(-c6cc[nH]n6)ccn45)c3)no2)C1 [F68, methyl 3-(3-(3-(7-(1H-pyrazol-3-yl)imidazo[1,2-a]pyridine-3-carboxamido)-4-methylphenyl)-1,2,4-oxadiazol-5-yl)azetidine-1-carboxylate]
0.039 µM | Cc1ccc(Nc2noc(C3CCOCC3)n2)cc1NC(=O)c1cnc2ccccn12 [F69]
0.006 µM | Cc1ccc(Nc2noc(C3CCCCO3)n2)cc1NC(=O)c1cnc2ccccn12 (centres unmarked) [F70]
0.011 µM | Cc1ccc(Nc2noc([C@H]3CCCO3)n2)cc1NC(=O)c1cnc2ccccn12 [F71]
0.006 µM | Cc1ccc(Nc2noc([C@@H]3CCCO3)n2)cc1NC(=O)c1cnc2ccccn12 [F72]
0.03 µM | COC(=O)N1CC(c2nc(-c3ccc(C)c(NC(=O)c4cnc5cc(CCC(C)=O)ccn45)c3)no2)C1 [F73, methyl 3-(3-(4-methyl-3-(7-(3-oxobutyl)imidazo[1,2-a]pyridine-3-carboxamido)phenyl)-1,2,4-oxadiazol-5-yl)azetidine-1-carboxylate]
0.051 µM | COC(=O)N1CC(c2nc(-c3ccc(C)c(NC(=O)c4cnc5cc(CCC(C)(C)O)ccn45)c3)no2)C1 [F74, methyl 3-(3-(3-(7-(3-hydroxy-3-methylbutyl)imidazo[1,2-a]pyridine-3-carboxamido)-4-methylphenyl)-1,2,4-oxadiazol-5-yl)azetidine-1-carboxylate]
0.061 µM | Cc1ccc(-c2nc(N3CCOCC3)no2)cc1NC(=O)c1cnc2ccccn12 [F75, N-(2-methyl-5-(3-morpholino-1,2,4-oxadiazol-5-yl)phenyl)imidazo[1,2-a]pyridine-3-carboxamide]
0.051 µM | [2H]c1c([2H])c([2H])n2c(C(=O)Nc3cc(-c4noc(C5CN(C(=O)OC)C5)n4)ccc3C)cnc2c1[2H] [F76, methyl 3-(3-(4-methyl-3-(5,6,7,8-(D4)imidazo[1,2-a]pyridine-3-carboxamido)phenyl)-1,2,4-oxadiazol-5-yl)azetidine-1-carboxylate]
